{"source": "PubChem BioAssay (NCI)", "experiment_in_all_cases": "NCI tumour cell line growth inhibition, 48 h", "key": {"[1]": {"system": "DLD-1 colon"}, "[2]": {"system": "DMS 114 small cell lung"}, "[3]": {"system": "DMS 273 small cell lung"}, "[4]": {"system": "HOP-18 NSCLC"}, "[5]": {"system": "LXFL 529 NSCLC"}, "[6]": {"system": "M19-MEL melanoma"}, "[7]": {"system": "XF 498 CNS"}, "[8]": {"system": "RXF-631 renal"}, "[9]": {"system": "P388 leukemia"}, "[10]": {"system": "P388/ADR leukemia"}, "[11]": {"system": "SN12K1 renal"}}, "note": "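Where inhibition never reached the appropriate level, the endpoint shown equals the highest concentration tested. Otherwise, values were interpolated linearly from a five-concentration, 48-hour dose response in 96-well plates. At the TGI there is no net growth.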", "data": [{"smiles": "C=Nc1ccc([N+](=O)[O-])cc1", "values": [{"measurement": "TGI", "setting": "[1]", "result": "> 100", "unit": "µM"}, {"measurement": "TGI", "setting": "[2]", "result": "> 100", "unit": "µM"}, {"measurement": "TGI", "setting": "[3]", "result": "> 100", "unit": "µM"}, {"measurement": "TGI", "setting": "[4]", "result": "> 92.9", "unit": "µM"}, {"measurement": "TGI", "setting": "[5]", "result": "> 100", "unit": "µM"}, {"measurement": "TGI", "setting": "[6]", "result": "> 100", "unit": "µM"}, {"measurement": "TGI", "setting": "[7]", "result": "> 100", "unit": "µM"}]}, {"smiles": "Cc1cn(C2CC(O)C(CO)C2C)c(=O)[nH]c1=O", "note": "(configuration not stated)", "values": [{"measurement": "TGI", "setting": "[1]", "result": "> 100", "unit": "µM"}, {"measurement": "TGI", "setting": "[2]", "result": "> 100", "unit": "µM"}, {"measurement": "TGI", "setting": "[3]", "result": "> 100", "unit": "µM"}, {"measurement": "TGI", "setting": "[4]", "result": "> 100", "unit": "µM"}, {"measurement": "TGI", "setting": "[5]", "result": "> 100", "unit": "µM"}, {"measurement": "TGI", "setting": "[6]", "result": "> 100", "unit": "µM"}, {"measurement": "TGI", "setting": "[8]", "result": "> 100", "unit": "µM"}, {"measurement": "TGI", "setting": "[7]", "result": "> 100", "unit": "µM"}]}, {"smiles": "CN(C)N=Nc1ccc([N+](=O)[O-])cc1C(N)=O", "values": [{"measurement": "TGI", "setting": "[1]", "result": "> 100", "unit": "µM"}, {"measurement": "TGI", "setting": "[2]", "result": "> 100", "unit": "µM"}, {"measurement": "TGI", "setting": "[3]", "result": "> 100", "unit": "µM"}, {"measurement": "TGI", "setting": "[4]", "result": "> 100", "unit": "µM"}, {"measurement": "TGI", "setting": "[6]", "result": "> 100", "unit": "µM"}, {"measurement": "TGI", "setting": "[9]", "result": "> 100", "unit": "µM"}, {"measurement": "TGI", "setting": "[10]", "result": "> 100", "unit": "µM"}, {"measurement": "TGI", "setting": "[11]", "result": "> 100", "unit": "µM"}, {"measurement": "TGI", "setting": "[7]", "result": "> 100", "unit": "µM"}]}, {"smiles": "CO/C(=N\\N=C\\c1ccc(Cl)cc1)c1ccncc1", "values": [{"measurement": "TGI", "setting": "[1]", "result": "> 100", "unit": "µM"}, {"measurement": "TGI", "setting": "[2]", "result": "> 100", "unit": "µM"}, {"measurement": "TGI", "setting": "[3]", "result": "> 100", "unit": "µM"}, {"measurement": "TGI", "setting": "[5]", "result": "> 100", "unit": "µM"}, {"measurement": "TGI", "setting": "[7]", "result": "> 100", "unit": "µM"}]}, {"smiles": "COC(=O)C1=C(C)N2CCCOC2(C)C(C(=O)OC)C1c1cccc(Cl)c1", "note": "(configuration not stated)", "values": [{"measurement": "TGI", "setting": "[2]", "result": 60.5, "unit": "µM"}, {"measurement": "TGI", "setting": "[5]", "result": 74.6, "unit": "µM"}, {"measurement": "TGI", "setting": "[6]", "result": 54.3, "unit": "µM"}]}, {"smiles": "CC(C)(C)C#C[P+](c1ccccc1)(c1ccccc1)c1ccccc1", "values": [{"measurement": "TGI", "setting": "[1]", "result": 2.5, "unit": "µM"}, {"measurement": "TGI", "setting": "[4]", "result": 6.34, "unit": "µM"}, {"measurement": "TGI", "setting": "[5]", "result": 0.67, "unit": "µM"}, {"measurement": "TGI", "setting": "[6]", "result": 1.14, "unit": "µM"}, {"measurement": "TGI", "setting": "[8]", "result": 2.63, "unit": "µM"}]}]}
